Laboratory results reported in ChEMBL document CHEMBL6096706, “Discovery of WDR5-MLL1 and HDAC Dual-Target Inhibitors for the Treatment of Acute Myeloid Leukemia” (J Med Chem, 2025).
pIC50: −log10 of the molar value.

Tests used:
MV4-11 [1] = assay: Antiproliferative activity against human MV4-11 cells assessed as growth inhibition at 1 uM measured after 72 hrs by CellTiterGlo assay; type: functional; conditions: read-out: GI
MV4-11 [2] = assay: Antiproliferative activity against human MV4-11 cells assessed as growth inhibition at 0.1 uM measured after 72 hrs in presence of 1 uM of vorinostat by CellTiterGlo assay; type: functional; conditions: read-out: GI
MV4-11 [3] = assay: Antiproliferative activity against human MV4-11 cells assessed as growth inhibition at 0.2 uM measured after 72 hrs in presence of 0.4 uM of vorinostat by CellTiterGlo assay; type: functional; conditions: read-out: GI
MV4-11 [4] = assay: Antiproliferative activity against human MV4-11 cells assessed as growth inhibition at 1 uM measured after 72 hrs in presence of 1 uM of vorinostat by CellTiterGlo assay; type: functional; conditions: read-out: GI
MV4-11 [5] = assay: Antiproliferative activity against human MV4-11 cells assessed as growth inhibition at 0.5 uM measured after 72 hrs in presence of 1 uM of vorinostat by CellTiterGlo assay; type: functional; conditions: read-out: GI
MV4-11 [6] = assay: Antiproliferative activity against human MV4-11 cells assessed as growth inhibition at 0.1 uM measured after 72 hrs in presence of 0.4 uM of vorinostat by CellTiterGlo assay; type: functional; conditions: read-out: GI
MV4-11 [7] = assay: Antiproliferative activity against human MV4-11 cells assessed as growth inhibition at 0.05 uM measured after 72 hrs by CellTiterGlo assay; type: functional; conditions: read-out: GI
MV4-11 [8] = assay: Antiproliferative activity against human MV4-11 cells assessed as growth inhibition at 0.1 uM measured after 72 hrs in presence of 0.05 uM of vorinostat by CellTiterGlo assay; type: functional; conditions: read-out: GI
MV4-11 [9] = assay: Antiproliferative activity against human MV4-11 cells assessed as growth inhibition at 0.5 uM measured after 72 hrs in presence of 0.4 uM of vorinostat by CellTiterGlo assay; type: functional; conditions: read-out: GI
MV4-11 [10] = assay: Induction of apoptosis in human MV4-11 cells assessed as early apoptotic cells at 400 nM incubated for 72 hrs in presence of vorinostat by Annexin V/PI staining based flow cytometry analysis (reference value: 0.76 %); type: functional
MV4-11 [11] = assay: Antiproliferative activity against human MV4-11 cells assessed as growth inhibition at 0.1 uM measured after 72 hrs in presence of 0.1 uM of vorinostat by CellTiterGlo assay; type: functional; conditions: read-out: GI
MV4-11 [12] = assay: Induction of apoptosis in human MV4-11 cells assessed as necrotic cells at 200 nM incubated for 72 hrs in presence of vorinostat by Annexin V/PI staining based flow cytometry analysis (reference value: 2.61%); type: functional
MV4-11 [13] = assay: Antiproliferative activity against human MV4-11 cells assessed as growth inhibition at 0.4 uM measured after 72 hrs in presence of 0.05 uM of vorinostat by CellTiterGlo assay; type: functional; conditions: read-out: GI
MV4-11 [14] = assay: Antiproliferative activity against human MV4-11 cells assessed as growth inhibition at 0.05 uM measured after 72 hrs in presence of 0.4 uM of vorinostat by CellTiterGlo assay; type: functional; conditions: read-out: GI
MV4-11 [15] = assay: Induction of apoptosis in human MV4-11 cells assessed as necrotic cells at 200 nM incubated for 72 hrs by Annexin V/PI staining based flow cytometry analysis (reference value: 2.61%); type: functional
MV4-11 [16] = assay: Antiproliferative activity against human MV4-11 cells assessed as growth inhibition at 1 uM measured after 72 hrs in presence of 0.05 uM of vorinostat by CellTiterGlo assay; type: functional; conditions: read-out: GI
MV4-11 [17] = assay: Induction of apoptosis in human MV4-11 cells assessed as late apoptotic cells at 600 nM incubated for 72 hrs in presence of vorinostat by Annexin V/PI staining based flow cytometry analysis (reference value: 6.42 %); type: functional
MV4-11 [18] = assay: Antiproliferative activity against human MV4-11 cells assessed as growth inhibition at 1 uM measured after 72 hrs in presence of 0.1 uM of vorinostat by CellTiterGlo assay; type: functional; conditions: read-out: GI
MV4-11 [19] = assay: Induction of apoptosis in human MV4-11 cells assessed as necrotic cells at 100 nmol/L incubated for 72 hrs by Annexin V/PI staining based flow cytometry analysis (reference value: 0.46%); type: functional
MV4-11 [20] = assay: cells; type: functional, cell-based; conditions: Homo sapiens, MV4-11, 72 h
Description: Antiproliferative activity against human MV4-11 cells assessed as inhibition of cell growth measured after 72 hrs by CellTiterGlo assay

[21] = Toxicity in mouse implanted in human MV4-11 cells assessed as animal death at 10 to 30 mg/kg, ip administered daily for 17 days; type: organism-based; conditions: in vivo, 408 h, dose 10-30 mg/kg, time 17 day
[22] = target: Histone-lysine N-methyltransferase 2A (Homo sapiens, UniProt Q03164); assay: Inhibition of MLL1 (unknown origin) by fluorescence based assay
[23] = Toxicity in mouse implanted in human MV4-11 cells assessed as heart damage at 10 to 30 mg/kg, ip administered daily for 17 days by H and E staining based analysis; type: organism-based; conditions: in vivo, 408 h, dose 10-30 mg/kg, time 17 day
Histone deacetylase 3 = Histone deacetylase 3 (Homo sapiens, UniProt O15379); assay: Inhibition of HDAC3 (unknown origin) by fluorescence based assay
MV4-11 [24] = assay: Antitumor activity against human MV4-11 cells xenografted in mouse assessed as tumor growth inhibition at 20 mg/kg, ip administered daily for 17 days; type: functional; conditions: MV4-11, 408 h, time 17 day, read-out: TGI
[25] = target: Histone-lysine N-methyltransferase 2A/WDR5 (Homo sapiens, UniProt P61964); assay: Inhibition of MLL1/WDR5 (unknown origin) protein-protein interaction incubated for 2 hrs by FP analysis; type: protein assay
MOLM-13 = assay: cells; type: functional, cell-based; conditions: Homo sapiens, MOLM-13, 72 h
Description: Antiproliferative activity against human MOLM-13 cells assessed as inhibition of cell growth measured after 72 hrs by CellTiterGlo assay

[26] = Toxicity in mouse implanted in human MV4-11 cells assessed as spleen damage at 10 to 30 mg/kg, ip administered daily for 17 days by H and E staining based analysis; type: organism-based; conditions: in vivo, 408 h, dose 10-30 mg/kg, time 17 day

Histone-lysine N-methyltransferase 2A, sequence (Q03164 1-2718 limits assumed): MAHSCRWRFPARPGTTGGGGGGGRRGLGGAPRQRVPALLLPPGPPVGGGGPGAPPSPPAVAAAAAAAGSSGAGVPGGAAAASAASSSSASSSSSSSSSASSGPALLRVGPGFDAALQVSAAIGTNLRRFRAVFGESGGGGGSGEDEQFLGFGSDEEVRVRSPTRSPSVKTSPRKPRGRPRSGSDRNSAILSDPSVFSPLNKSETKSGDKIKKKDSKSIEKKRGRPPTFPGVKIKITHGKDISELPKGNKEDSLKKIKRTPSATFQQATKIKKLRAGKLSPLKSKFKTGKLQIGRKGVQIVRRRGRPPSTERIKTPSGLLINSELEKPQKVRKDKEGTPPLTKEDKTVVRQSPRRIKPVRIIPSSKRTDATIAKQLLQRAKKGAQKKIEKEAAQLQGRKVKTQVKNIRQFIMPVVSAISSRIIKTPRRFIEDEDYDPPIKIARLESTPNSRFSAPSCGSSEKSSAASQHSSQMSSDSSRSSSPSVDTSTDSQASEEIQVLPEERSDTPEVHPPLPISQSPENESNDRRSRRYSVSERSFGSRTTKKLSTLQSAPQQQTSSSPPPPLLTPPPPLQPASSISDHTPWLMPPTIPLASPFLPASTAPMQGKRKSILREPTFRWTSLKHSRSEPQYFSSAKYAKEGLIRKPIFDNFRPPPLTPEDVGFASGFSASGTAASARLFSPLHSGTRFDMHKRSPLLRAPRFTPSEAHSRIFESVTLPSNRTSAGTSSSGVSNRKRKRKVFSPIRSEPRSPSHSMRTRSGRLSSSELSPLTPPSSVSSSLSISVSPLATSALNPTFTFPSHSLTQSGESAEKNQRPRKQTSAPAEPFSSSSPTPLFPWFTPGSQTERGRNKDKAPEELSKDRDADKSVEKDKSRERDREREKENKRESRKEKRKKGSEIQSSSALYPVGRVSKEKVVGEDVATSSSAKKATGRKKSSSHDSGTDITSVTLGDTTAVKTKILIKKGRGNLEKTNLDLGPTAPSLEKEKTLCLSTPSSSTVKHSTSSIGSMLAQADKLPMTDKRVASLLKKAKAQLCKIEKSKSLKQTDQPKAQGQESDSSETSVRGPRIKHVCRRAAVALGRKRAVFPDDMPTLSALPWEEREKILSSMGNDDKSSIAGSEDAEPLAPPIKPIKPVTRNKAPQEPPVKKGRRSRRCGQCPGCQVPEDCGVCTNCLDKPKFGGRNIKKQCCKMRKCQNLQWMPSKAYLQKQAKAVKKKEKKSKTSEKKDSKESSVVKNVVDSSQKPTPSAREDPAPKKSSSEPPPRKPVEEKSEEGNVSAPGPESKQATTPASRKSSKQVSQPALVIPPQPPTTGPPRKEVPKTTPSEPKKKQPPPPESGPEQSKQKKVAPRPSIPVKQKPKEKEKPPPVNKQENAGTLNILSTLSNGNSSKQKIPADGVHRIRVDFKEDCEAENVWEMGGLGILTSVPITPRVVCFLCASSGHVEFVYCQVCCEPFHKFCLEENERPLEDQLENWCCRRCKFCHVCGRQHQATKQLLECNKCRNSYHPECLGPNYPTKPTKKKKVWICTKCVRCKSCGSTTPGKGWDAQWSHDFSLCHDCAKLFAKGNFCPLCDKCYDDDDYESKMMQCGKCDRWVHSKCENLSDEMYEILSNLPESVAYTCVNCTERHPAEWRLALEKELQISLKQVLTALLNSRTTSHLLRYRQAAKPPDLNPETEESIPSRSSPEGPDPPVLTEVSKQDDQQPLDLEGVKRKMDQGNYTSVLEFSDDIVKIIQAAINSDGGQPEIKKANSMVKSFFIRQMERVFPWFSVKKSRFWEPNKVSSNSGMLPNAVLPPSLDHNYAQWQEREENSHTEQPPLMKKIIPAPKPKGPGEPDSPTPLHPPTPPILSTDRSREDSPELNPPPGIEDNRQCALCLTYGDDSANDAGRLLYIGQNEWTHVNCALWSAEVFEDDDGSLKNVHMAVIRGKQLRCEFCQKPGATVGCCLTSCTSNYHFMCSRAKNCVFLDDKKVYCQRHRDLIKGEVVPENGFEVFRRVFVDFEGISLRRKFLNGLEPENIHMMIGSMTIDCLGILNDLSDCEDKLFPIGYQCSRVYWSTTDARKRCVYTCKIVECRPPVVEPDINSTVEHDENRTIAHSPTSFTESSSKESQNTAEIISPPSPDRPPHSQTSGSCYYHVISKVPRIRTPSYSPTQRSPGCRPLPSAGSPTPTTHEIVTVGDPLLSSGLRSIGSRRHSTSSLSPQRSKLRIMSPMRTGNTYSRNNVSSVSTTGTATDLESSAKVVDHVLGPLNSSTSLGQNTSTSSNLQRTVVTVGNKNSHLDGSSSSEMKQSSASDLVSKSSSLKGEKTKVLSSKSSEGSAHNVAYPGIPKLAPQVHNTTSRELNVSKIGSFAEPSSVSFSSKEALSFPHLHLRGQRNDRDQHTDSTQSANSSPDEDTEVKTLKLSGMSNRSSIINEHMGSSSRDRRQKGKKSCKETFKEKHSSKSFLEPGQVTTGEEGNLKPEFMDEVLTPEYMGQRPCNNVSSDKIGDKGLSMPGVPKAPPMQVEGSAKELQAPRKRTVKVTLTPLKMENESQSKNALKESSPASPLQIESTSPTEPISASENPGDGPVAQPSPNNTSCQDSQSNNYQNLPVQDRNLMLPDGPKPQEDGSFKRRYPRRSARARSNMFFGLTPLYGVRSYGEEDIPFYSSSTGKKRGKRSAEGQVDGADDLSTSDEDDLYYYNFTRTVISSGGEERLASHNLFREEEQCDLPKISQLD
Histone-lysine N-methyltransferase 2A, sequence (Q03164 2719-3969 limits assumed): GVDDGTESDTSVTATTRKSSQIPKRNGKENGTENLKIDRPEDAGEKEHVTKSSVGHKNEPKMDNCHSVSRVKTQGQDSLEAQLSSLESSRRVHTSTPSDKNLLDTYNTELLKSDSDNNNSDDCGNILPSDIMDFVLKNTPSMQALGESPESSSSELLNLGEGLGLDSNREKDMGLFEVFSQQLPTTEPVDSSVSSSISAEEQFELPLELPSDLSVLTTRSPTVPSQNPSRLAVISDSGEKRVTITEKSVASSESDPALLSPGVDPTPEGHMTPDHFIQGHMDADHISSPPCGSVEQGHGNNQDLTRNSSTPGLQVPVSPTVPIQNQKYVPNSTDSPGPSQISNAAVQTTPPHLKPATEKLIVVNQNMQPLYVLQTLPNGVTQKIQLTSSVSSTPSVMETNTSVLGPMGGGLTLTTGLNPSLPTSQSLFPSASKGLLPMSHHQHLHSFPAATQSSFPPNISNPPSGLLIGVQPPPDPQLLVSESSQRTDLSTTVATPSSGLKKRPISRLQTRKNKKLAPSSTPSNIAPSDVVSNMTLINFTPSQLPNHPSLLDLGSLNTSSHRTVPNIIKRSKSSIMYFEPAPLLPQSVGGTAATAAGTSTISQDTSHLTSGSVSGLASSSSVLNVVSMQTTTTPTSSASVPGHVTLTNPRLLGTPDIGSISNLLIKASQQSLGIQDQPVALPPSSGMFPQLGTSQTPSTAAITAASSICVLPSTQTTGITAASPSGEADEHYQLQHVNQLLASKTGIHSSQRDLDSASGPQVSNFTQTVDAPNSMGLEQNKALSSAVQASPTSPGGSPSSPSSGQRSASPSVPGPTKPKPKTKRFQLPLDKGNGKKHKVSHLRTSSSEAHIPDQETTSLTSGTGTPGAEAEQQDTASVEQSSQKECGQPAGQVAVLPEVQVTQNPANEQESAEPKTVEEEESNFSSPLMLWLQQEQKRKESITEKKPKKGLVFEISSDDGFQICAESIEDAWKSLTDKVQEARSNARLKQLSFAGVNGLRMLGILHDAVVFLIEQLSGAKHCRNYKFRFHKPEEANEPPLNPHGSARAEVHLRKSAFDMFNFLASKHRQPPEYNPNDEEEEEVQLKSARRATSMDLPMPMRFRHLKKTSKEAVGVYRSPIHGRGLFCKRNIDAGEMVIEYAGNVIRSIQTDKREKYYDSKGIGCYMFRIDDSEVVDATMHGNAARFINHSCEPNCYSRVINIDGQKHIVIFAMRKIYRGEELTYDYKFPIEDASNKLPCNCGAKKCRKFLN
Histone deacetylase 3, sequence (O15379 whole entry): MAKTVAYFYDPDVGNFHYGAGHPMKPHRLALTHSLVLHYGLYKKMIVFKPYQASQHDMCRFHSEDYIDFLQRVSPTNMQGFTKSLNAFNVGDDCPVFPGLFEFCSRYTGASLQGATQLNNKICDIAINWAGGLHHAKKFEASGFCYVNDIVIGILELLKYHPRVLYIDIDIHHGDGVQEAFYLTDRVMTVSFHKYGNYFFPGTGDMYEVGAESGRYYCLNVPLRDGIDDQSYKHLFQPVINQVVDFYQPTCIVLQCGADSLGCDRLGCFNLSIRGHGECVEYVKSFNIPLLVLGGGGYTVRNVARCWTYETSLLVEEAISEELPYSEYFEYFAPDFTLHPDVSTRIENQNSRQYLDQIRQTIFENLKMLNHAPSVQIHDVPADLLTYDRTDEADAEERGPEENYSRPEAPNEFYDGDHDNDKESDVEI

Cc1c(F)c(N)cc(C(=O)Nc2cc(-c3ccc(C(=O)N4CCOCC4)cc3)ccc2N2CCN(C)CC2)c1Cl
inhibition of growth at 1 µM (MV4-11 [1]): 40.7% | inhibition of growth at 0.1 µM (MV4-11 [2]): 88.1% | inhibition of growth at 0.2 µM (MV4-11 [3]): 60.3% | inhibition of growth at 1 µM (MV4-11 [4]): 94.9% | inhibition of growth at 0.5 µM (MV4-11 [5]): 91.1% | inhibition of growth at 0.1 µM (MV4-11 [6]): 59% | inhibition of growth at 0.05 µM (MV4-11 [7]): 17.5% | inhibition of growth at 0.1 µM (MV4-11 [8]): 34.4% | inhibition of growth at 0.5 µM (MV4-11 [9]): 65.2% | Activity (MV4-11 [10]): 54.05% | inhibition of growth at 0.1 µM (MV4-11 [11]): 42.8% | Activity (MV4-11 [12]): 1.48% | inhibition of growth at 0.4 µM (MV4-11 [13]): 40% | inhibition of growth at 0.05 µM (MV4-11 [14]): 45.1% | Activity (MV4-11 [15]): 1.62% | inhibition of growth at 1 µM (MV4-11 [16]): 52.1% | Activity (MV4-11 [17]): 19.27% | inhibition of growth at 1 µM (MV4-11 [18]): 57.4%

Cc1c(F)c(N)cc(C(=O)Nc2cc(-c3ccc(C(=O)NCc4ccc(/C=C/C(=O)NO)cc4)cc3)ccc2N2CCN(C)CC2)c1Cl
Activity (MV4-11 [19]): 1.84% | pIC50 (MV4-11 [20]): 7.19 | Activity [21]: Non-toxic | pIC50 [22]: 6.88 | Activity [23]: Non-toxic | pIC50 (Histone deacetylase 3): 6.53 | inhibition in vivo at 20 mg/kg (MV4-11 [24]): 69% | pIC50 [25]: 7.38 | pIC50 (MOLM-13): 7.15 | Activity [26]: Non-toxic
